In the oligonucleotide strings, read from the 5' end, every base follows the letter of its sugar. An asterisk marks phosphorothioate; unmarked linkages are phosphodiester. Other units and linkages are bracketed, terminal groups are in braces. A string of capitals states the bases alone. e = 2'-O-(2-methoxyethyl) (MOE); [5mC] = 5-methylcytosine; d = 2'-deoxy (DNA)
Tests used:
Assay type in all cases: cell-based
human Factor XI mRNA [1] = experiment: Antisense inhibition in HepG2 cells by microwalk gapmers, 75 nM, lipofectin (Example 3); settings: HepG2 cells, 75 nM
Method: These gapmers were designed by creating gapmers shifted slightly upstream and downstream (i.e. “microwalk”) of the original gapmers from Table 3. Gapmers were also created with various motifs, e.g. 5-10-5 MOE, 3-14-3 MOE, and 2-13-5 MOE. These gapmers were tested in vitro. Cultured HepG2 cells at a density of 10,000 cells per well were transfected using lipofectin reagent with 75 nM antisense oligonucleotide. After a treatment period of approximately 24 hours, RNA was isolated from the cells and Factor XI mRNA levels were measured by quantitative real-time PCR. Factor XI mRNA levels were adjusted according to total RNA content, as measured by RIBOGREEN®. Results are presented as percent inhibition of Factor XI, relative to untreated control cells.
The chimeric antisense oligonucleotides in Table 4 were designed as 5-10-5 MOE, 3-14-3 MOE, and 2-13-5 MOE gapmers. The first listed gapmers in Table 4 are the original gapmers (see Table 3) from which the remaining gapmers were designed via microwalk and are designated by an asterisk. The 5-10-5 gapmers are 20 nucleotides in length, wherein the central gap segment is comprised of 10 2′-deoxynucleotides and is flanked on both sides (in the 5′ and 3′ directions) by wings comprising 5 nucleotides each. The 3-14-3 gapmers are 20 nucleotides in length, wherein the central gap segment is comprised of 14 2′-deoxynucleotides and is flanked on both sides (in the 5′ and 3′ directions) by wings comprising 3 nucleotides each. The 2-13-5 gapmers are 20 nucleotides in length, wherein the central gap segment is comprised of 13 2′-deoxynucleotides. The central gap is flanked on the 5′ end with a wing comprising 2 nucleotides and on the 3′ end with a wing comprising 5 nucleotides. For each of the motifs (5-10-5, 3-14-3, and 2-13-5), each nucleotide in the 5′ wing segment and each nucleotide in the 3′ wing segment has a 2′-MOE modification. The internucleoside linkages throughout each gapmer are phosphorothioate (P═S) linkages. All cytidine residues throughout each gapmer are 5-methylcytidines. “Target start site” indicates the 5′-most nucleotide to which the gapmer is targeted. “Target stop site” indicates the 3′-most nucleotide to which the gapmer is targeted. Each gapmer listed in Table 4 is targeted to SEQ ID NO: 1 (GENBANK Accession No. NM_000128.3).

human Factor XI mRNA [2] = experiment: Dose-dependent inhibition in HepG2 cells, lipofectin (Example 4); settings: 16 hours
Method: (§1) Cells were plated at a density of 10,000 cells per well and transfected using lipofectin reagent with 9.375 nM, 18.75 nM, 37.5 nM and 75 nM concentrations of antisense oligonucleotide, as specified in Table 9. After a treatment period of approximately 16 hours, RNA was isolated from the cells and Factor XI mRNA levels were measured by quantitative real-time PCR. Human Factor XI primer probe set RTS 2966 was used to measure mRNA levels. Factor XI mRNA levels were adjusted according to total RNA content, as measured by RIBOGREEN®. Results are presented as percent inhibition of Factor XI, relative to untreated control cells.

human Factor XI mRNA [3] = experiment: Dose-dependent inhibition in HepG2 cells, electroporation (Example 4); settings: 16 hours
Method: as §1, with “The gapmers were also transfected via electroporation and their dose dependent inhibition of human Factor XI mRNA was measured. Cells” for “Cells”, “20,000” for “10,000”, “via electroporation” for “using lipofectin reagent”, “0.7 μM, 2.2 μM, 6.7 μM,” for “9.375 nM, 18.75 nM, 37.5 nM”, “20 μM” for “75 nM”, “10.” for “9.”

[4] = oligonucleotides targeted to nucleobases 1062 to 1091 of SEQ ID NO: 1
[5] = oligonucleotides targeted to nucleobases 738 to 762 of SEQ ID NO: 1
[6] = oligonucleotides targeted to nucleobases 1018 to 1042 of SEQ ID NO: 1

Substance | percent inhibition of Factor XI mRNA, relative to untreated control cells (human Factor XI mRNA [2]; 9.375 nM) | percent inhibition of Factor XI mRNA, relative to untreated control cells (human Factor XI mRNA [2]; 18.75 nM) | percent inhibition of Factor XI mRNA, relative to untreated control cells (human Factor XI mRNA [2]; 37.5 nM) | percent inhibition of Factor XI mRNA, relative to untreated control cells (human Factor XI mRNA [2]; 75 nM) | percent inhibition of Factor XI mRNA, relative to untreated control cells (human Factor XI mRNA [3]; 0.7 μM) | percent inhibition of Factor XI mRNA, relative to untreated control cells (human Factor XI mRNA [3]; 2.2 μM) | percent inhibition of Factor XI mRNA, relative to untreated control cells (human Factor XI mRNA [3]; 6.7 μM) | percent inhibition of Factor XI mRNA, relative to untreated control cells (human Factor XI mRNA [3]; 20 μM) | other results
412215 (antisense eA*eT*eT*e[5mC]*eT*dT*dT*dG*dG*dG*d[5mC]*d[5mC]*dA*dT*dT*e[5mC]*e[5mC]*eT*eG*eG) [compound 412215] |  |  |  |  |  |  |  |  | % inhibition of human Factor XI mRNA levels (human Factor XI mRNA [1]; [4]): 82%
416827 (antisense eT*eA*eT*eG*e[5mC]*d[5mC]*d[5mC]*dT*dT*d[5mC]*dA*dT*dG*dT*d[5mC]*eT*eA*eG*eG*eT) [compound 416827] | 31% | 42% | 62% | 77% | 37% | 68% | 87% | 92% | 
416830 (antisense eT*e[5mC]*e[5mC]*eG*eT*dG*d[5mC]*dA*dT*d[5mC]*dT*dT*dT*d[5mC]*dT*eT*eG*eG*e[5mC]*eA) [compound 416830] |  |  |  |  |  |  |  |  | % inhibition of human Factor XI mRNA levels (human Factor XI mRNA [1]; [5]): 81%
416831 (antisense eA*eT*e[5mC]*e[5mC]*eG*dT*dG*d[5mC]*dA*dT*d[5mC]*dT*dT*dT*d[5mC]*eT*eT*eG*eG*e[5mC]) [compound 416831] |  |  |  |  |  |  |  |  | % inhibition of human Factor XI mRNA levels (human Factor XI mRNA [1]; [5]): 91%
416832 (antisense e[5mC]*eA*eT*e[5mC]*e[5mC]*dG*dT*dG*d[5mC]*dA*dT*d[5mC]*dT*dT*dT*e[5mC]*eT*eT*eG*eG) [compound 416832] |  |  |  |  |  |  |  |  | % inhibition of human Factor XI mRNA levels (human Factor XI mRNA [1]; [5]): 79%
416833 (antisense eT*e[5mC]*eA*eT*e[5mC]*d[5mC]*dG*dT*dG*d[5mC]*dA*dT*d[5mC]*dT*dT*eT*e[5mC]*eT*eT*eG) [compound 416833] |  |  |  |  |  |  |  |  | % inhibition of human Factor XI mRNA levels (human Factor XI mRNA [1]; [5]): 65%
416834 (antisense eG*eT*e[5mC]*eA*eT*d[5mC]*d[5mC]*dG*dT*dG*d[5mC]*dA*dT*d[5mC]*dT*eT*eT*e[5mC]*eT*eT) [compound 416834] |  |  |  |  |  |  |  |  | % inhibition of human Factor XI mRNA levels (human Factor XI mRNA [1]; [5]): 58%
416835 (antisense eA*e[5mC]*e[5mC]*eG*eG*dG*dA*dT*dG*dA*dT*dG*dA*dG*dT*eG*e[5mC]*eA*eG*eA) [compound 416835] |  |  |  |  |  |  |  |  | % inhibition of human Factor XI mRNA levels (human Factor XI mRNA [1]; [6]): 83%
416836 (antisense eA*eA*e[5mC]*e[5mC]*eG*dG*dG*dA*dT*dG*dA*dT*dG*dA*dG*eT*eG*e[5mC]*eA*eG) [compound 416836] |  |  |  |  |  |  |  |  | % inhibition of human Factor XI mRNA levels (human Factor XI mRNA [1]; [6]): 89%
416837 (antisense e[5mC]*eA*eA*e[5mC]*e[5mC]*dG*dG*dG*dA*dT*dG*dA*dT*dG*dA*eG*eT*eG*e[5mC]*eA) [compound 416837] |  |  |  |  |  |  |  |  | % inhibition of human Factor XI mRNA levels (human Factor XI mRNA [1]; [6]): 90%
416839 (antisense eG*eA*eT*eT*e[5mC]*dT*dT*dT*dG*dG*dG*d[5mC]*d[5mC]*dA*dT*eT*e[5mC]*e[5mC]*eT*eG) [compound 416839] |  |  |  |  |  |  |  |  | % inhibition of human Factor XI mRNA levels (human Factor XI mRNA [1]; [4]): 89%
416840 (antisense eA*eG*eA*eT*eT*d[5mC]*dT*dT*dT*dG*dG*dG*d[5mC]*d[5mC]*dA*eT*eT*e[5mC]*e[5mC]*eT) [compound 416840] |  |  |  |  |  |  |  |  | % inhibition of human Factor XI mRNA levels (human Factor XI mRNA [1]; [4]): 85%
416841 (antisense eG*eA*eG*eA*eT*dT*d[5mC]*dT*dT*dT*dG*dG*dG*d[5mC]*d[5mC]*eA*eT*eT*e[5mC]*e[5mC]) [compound 416841] |  |  |  |  |  |  |  |  | % inhibition of human Factor XI mRNA levels (human Factor XI mRNA [1]; [4]): 87%
416843 (antisense eT*eT*eT*eG*eA*dG*dA*dT*dT*d[5mC]*dT*dT*dT*dG*dG*eG*e[5mC]*e[5mC]*eA*eT) [compound 416843] |  |  |  |  |  |  |  |  | % inhibition of human Factor XI mRNA levels (human Factor XI mRNA [1]; [4]): 89%
416895 (antisense eT*eA*eT*dG*d[5mC]*d[5mC]*d[5mC]*dT*dT*d[5mC]*dA*dT*dG*dT*d[5mC]*dT*dA*eG*eG*eT) [compound 416895] | 39% | 57% | 66% | 71% | 0% | 62% | 70% | 91% | 
416896 (antisense eT*eT*eA*dT*dG*d[5mC]*d[5mC]*d[5mC]*dT*dT*d[5mC]*dA*dT*dG*dT*d[5mC]*dT*eA*eG*eG) [compound 416896] | 22% | 39% | 57% | 81% | 12% | 35% | 81% | 89% | 
416945 (antisense eA*eA*dT*dG*dT*d[5mC]*dT*dT*dT*dG*dT*dT*dG*d[5mC]*dA*eA*eG*e[5mC]*eG*e[5mC]) [compound 416945] | 34% | 45% | 62% | 65% | 48% | 70% | 81% | 88% | 
416969 (antisense eG*e[5mC]*d[5mC]*d[5mC]*dT*dT*d[5mC]*dA*dT*dG*dT*d[5mC]*dT*dA*dG*eG*eT*e[5mC]*e[5mC]*eA) [compound 416969] | 17% | 39% | 61% | 76% | 25% | 34% | 86% | 92% | 
416972 (antisense eT*eA*dT*dG*d[5mC]*d[5mC]*d[5mC]*dT*dT*d[5mC]*dA*dT*dG*dT*d[5mC]*eT*eA*eG*eG*eT) [compound 416972] | 32% | 40% | 60% | 69% | 25% | 30% | 48% | 88% | 
416973 (antisense eT*eT*dA*dT*dG*d[5mC]*d[5mC]*d[5mC]*dT*dT*d[5mC]*dA*dT*dG*dT*e[5mC]*eT*eA*eG*eG) [compound 416973] | 60% | 75% | 85% | 87% | 20% | 48% | 86% | 93% | 

— patent publication US20120083522A1, “MODULATION OF INFLAMMATORY RESPONSES BY FACTOR XI” (Isis Pharmaceuitcals, inc., priority 2009, published 2012)
